{
  "source": "patent US20050239873A1",
  "about": "(priority 1999, published 2005)",
  "key": {"Bcl-xL(ΔC) WT [1]": {"target": "T1, Bcl-xL(ΔC) WT (Homo sapiens, UniProt Q07817)", "T1 construct": "inferred from Ni-NTA purification and the pET22b(+) NdeI/XhoI cloning); made in house; host or cells: Escherichia coli BL21(DE3) carrying pUB520", "T1 sequence (Q07817 1-211 limits assumed, stated change not applied)": "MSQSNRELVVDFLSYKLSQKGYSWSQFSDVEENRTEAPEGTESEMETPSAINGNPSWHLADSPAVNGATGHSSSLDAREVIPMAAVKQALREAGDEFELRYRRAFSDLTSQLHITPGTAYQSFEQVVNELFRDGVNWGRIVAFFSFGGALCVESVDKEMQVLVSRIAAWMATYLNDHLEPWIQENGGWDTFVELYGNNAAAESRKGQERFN", "experiment": "Pore-forming activity, calcein release from liposomes", "type": "biochemical", "method": "(§1) Large unilamellar vesicles composed of 60% dioleoylphophatidylcholine and 40% dioleoylphosphatidylglycerol were prepared by the extrusion method of Mayer et al., supra. Lipid stocks, in chloroform, were mixed and dried under a stream of nitrogen gas. The lipid was resuspended by vortexing for 30 min in a solution of 40 mM calcein (Molecular Probes), 25 mM KCl, and 10 mM KOAc, pH 5.0. After 10 freeze-thaw cycles, the lipid suspension was extruded through two 0.1 μm pore diameter Nucleopore filters. Non-entrapped dye was removed by passage over a Sephadex G10 column (Amersham Biosciences). Lipid concentration was measured using the ammonium ferrothiocyanate method (Stewart, Anal. Biochem. 104:10-14, 1980).\n(§2) For pore assays, recombinant truncated Bcl-2 family protein or mutant protein (Bcl-xL(ΔC)) (500 nM) was added to large unilamellar vesicles (60 μM lipid concentration) in 100 mM KCl, 10 mM KOAc, pH 5.0, and fluorescence measured (490 nm excitation, 520 nm emission) with a Fluoromax-3 spectrophotometer. Peptides of the BH3 domain were incubated with the BCl-xL(ΔC) 5 min prior to mixing with liposomes. AA1 was added to liposomes 1 min before adding the Bcl-xL(ΔC) protein. Samples for kinetic assays were analyzed in a thermostatted cuvette at 37° C. with constant stirring. Dose responses were measured in black quartz microplates (Hellma) at room temperature. Calcein release was expressed as percentage of maximum release with detergent lysis (0.1% Triton X-100)."}, "Bcl-xL(ΔC) F146L [2]": {"target": "T2, Bcl-xL(ΔC) F146L (Homo sapiens, UniProt Q07817, F146L)", "T2 construct": "inferred from Ni-NTA purification and the pET22b(+) NdeI/XhoI cloning); made in house; host or cells: Escherichia coli BL21(DE3) carrying pUB520", "T2 sequence (Q07817 1-211 F146L limits assumed)": "as the sequence (Q07817 1-211 limits assumed, stated change not applied) above, with F146L counted along it", "experiment": "Pore-forming activity, calcein release from liposomes", "type": "biochemical", "conditions": "Bcl-xL(ΔC) 500 nM; read-out: Pore Inhibition IC50", "method": "as §1, §2"}, "Bcl-xL(ΔC) F97W [3]": {"target": "T3, Bcl-xL(ΔC) F97W (Homo sapiens, UniProt Q07817, F97W)", "T3 construct": "inferred from Ni-NTA purification and the pET22b(+) NdeI/XhoI cloning); made in house; host or cells: Escherichia coli BL21(DE3) carrying pUB520", "T3 sequence (Q07817 1-211 F97W limits assumed)": "as the sequence (Q07817 1-211 limits assumed, stated change not applied) above, with F97W counted along it", "experiment": "Pore-forming activity, calcein release from liposomes", "type": "biochemical", "conditions": "Bcl-xL(ΔC) 500 nM; read-out: Pore Inhibition IC50", "method": "as §1, §2"}, "Bcl-xL(ΔC) E92L [4]": {"target": "T4, Bcl-xL(ΔC) E92L (Homo sapiens, UniProt Q07817, E92L)", "T4 construct": "inferred from Ni-NTA purification and the pET22b(+) NdeI/XhoI cloning); made in house; host or cells: Escherichia coli BL21(DE3) carrying pUB520", "T4 sequence (Q07817 1-211 E92L limits assumed)": "as the sequence (Q07817 1-211 limits assumed, stated change not applied) above, with E92L counted along it", "experiment": "Pore-forming activity, calcein release from liposomes", "type": "biochemical", "conditions": "Bcl-xL(ΔC) 500 nM; read-out: Pore Inhibition IC50", "method": "as §1, §2"}, "Bcl-xL(ΔC) A142L [5]": {"target": "T5, Bcl-xL(ΔC) A142L (Homo sapiens, UniProt Q07817, A142L)", "T5 construct": "inferred from Ni-NTA purification and the pET22b(+) NdeI/XhoI cloning); made in house; host or cells: Escherichia coli BL21(DE3) carrying pUB520", "T5 sequence (Q07817 1-211 A142L limits assumed)": "as the sequence (Q07817 1-211 limits assumed, stated change not applied) above, with A142L counted along it", "experiment": "Pore-forming activity, calcein release from liposomes", "type": "biochemical", "conditions": "Bcl-xL(ΔC) 500 nM; read-out: Pore Inhibition IC50", "method": "as §1\nas §2, with “Peptides of the BH3 domain were incubated with the BCl-xL(ΔC) 5 min prior to mixing with liposomes. AA1 was added to liposomes 1 min before adding the Bcl-xL(ΔC) protein.” left out, “X-100). […]” for “X-100).”"}, "Bcl-xL(ΔC) WT [6]": {"target": "T1, Bcl-xL(ΔC) WT", "experiment": "Fluorescence anisotropy binding", "conditions": "AA1 200 nM or FITC-labeled BH3 peptide 25 nM; read-out: Dissociation Constant KD", "method": "(§3) A pET22b (Novagen) vector coding for BCl-xL(ΔC), a mutant Bcl-xL protein without the COOH terminal region, was transformed into Escherichia coli BL21(DE3) cells that carried pUB520 (encoding human Arg tRNA) and grown to an A600 of 0.6. Protein expression was induced with 0.1 mM isopropyl β-D-thiogalactoside at 30° C. The cells were resuspended 1:5 (w/v) in PEB buffer (50 mM Tris, pH 8.0, 200 mM NaCl, 0.2 mM phenylmethylsulfonyl fluoride, 5 mM β-mercaptoethanol, 5 mM imidazole, and 1% (v/v) glycerol), and stirred for 20 min at 4° C. Cells were disrupted by pulse sonication, and the soluble fraction was loaded onto a nickel-nitrilotriacetic acid column (Qiagen) equilibrated with PEB buffer. The column was washed with 40 mM imidazole, eluted with 200 mM imidazole, and the protein fractions were pooled and dialyzed (50 mM Tris, pH 8.0, 200 mM NaCl, 0.2 mM phenylmethylsulfonyl fluoride) at 4° C. overnight. The dialyzed protein was concentrated to 10 mg/ml and fractionated on a Superdex 75 gel filtration column (Amersham Biosciences). The fractions containing Bcl-xL(ΔC) protein were pooled, exchanged into low-salt buffer (same as for previous dialysis buffer, except 50 mM NaCI), and loaded onto a MonoQ anion exchange column (Amersham Biosciences). Protein was eluted from the column with increasing NaCl gradient, pooled and concentrated.\n(§4) All reagents were prepared in 0.2 μm-filtered PBS with fresh 1 mM DTT. […] Slit widths were set at 10 nm for both excitation and emission."}, "Bcl-xL(ΔC) F146L [7]": {"target": "T2, Bcl-xL(ΔC) F146L", "experiment": "Fluorescence anisotropy binding", "method": "as §3, §4"}, "Bcl-xL(ΔC) F97W [8]": {"target": "T3, Bcl-xL(ΔC) F97W", "experiment": "Fluorescence anisotropy binding", "method": "as §3, §4"}, "Bcl-xL(ΔC) A142L [9]": {"target": "T5, Bcl-xL(ΔC) A142L", "experiment": "Fluorescence anisotropy binding", "method": "as §3, §4"}, "Bcl-xL(ΔC) E92L [10]": {"target": "T4, Bcl-xL(ΔC) E92L", "experiment": "Fluorescence anisotropy binding", "conditions": "AA1 200 nM or FITC-labeled BH3 peptide 25 nM; read-out: Dissociation Constant KD", "method": "as §3, §4"}, "[11]": {"test_system": "TAMH cells over-expressing Bcl-xL F146L", "experiment": "Cytotoxicity (Alamar Blue) in Bcl-xL transfectants", "type": "cell-based, murine", "method": "(§5) TAMH cells were transfected with DNA encoding each of the mutant BCl-xL proteins by lipofection (See Example 1 for method). For analysis of BCl-xL expression, 20 μg of cell protein was separated by 20% SDS-PAGE and transferred to nitrocellulose membranes. Immunodetection of BCl-xL was carried out using rabbit anti-Bcl-xL antibody and Protein A/horseradish peroxidase conjugate, followed by chemiluminescent detection. Cells were grown to about 80% confluence in 96-well plates followed by addition of 100 μl of 2X AA1 or staurosporine (STS) solution in complete medium. STS is a natural product originally isolated from the bacterium Streptomyces and found to be capable of inducing apoptosis in certain cells and which induction of apoptosis could be blocked by the expression of a Bcl-2 family protein. Cell viability was determined spectrophotometrically after 24 h treatment as the ratio of reduced and oxidized Alamar Blue (BIOSOURCE) at 570 nm and 600 nm, respectively. All results were normalized against DMSO controls. LD50 values were calculated by non-linear regression analysis using Prism software (Graphpad)."}, "[12]": {"test_system": "TAMH cells over-expressing Bcl-xL A142L", "experiment": "Cytotoxicity (Alamar Blue) in Bcl-xL transfectants", "type": "cell-based, murine", "method": "as §5"}, "[13]": {"test_system": "TAMH cells over-expressing Bcl-xL F97W", "experiment": "Cytotoxicity (Alamar Blue) in Bcl-xL transfectants", "type": "cell-based, murine", "conditions": "24 h", "method": "as §5"}, "[14]": {"test_system": "TAMH cells over-expressing Bcl-xL WT", "experiment": "Cytotoxicity (Alamar Blue) in Bcl-xL transfectants", "type": "cell-based, murine", "conditions": "24 h", "method": "as §5"}, "[15]": {"test_system": "TAMH cells over-expressing Bcl-xL E92L", "experiment": "Cytotoxicity (Alamar Blue) in Bcl-xL transfectants", "type": "cell-based, murine", "conditions": "24 h", "method": "as §5"}, "[16]": {"conditions": "AA1 200 nM or FITC-labeled BH3 peptide 25 nM, read-out: Dissociation Constant KD"}},
  "data": [
    {"smiles": "CCCCCC[C@H]1C(=O)O[C@H](C)[C@H](NC(=O)c2cccc(NC=O)c2O)C(=O)O[C@@H](C)[C@@H]1OC(=O)CC(C)C", "note": "[antimycin A1]", "values": [
      {"measurement": "effect on Bcl-xL pore-forming activity", "setting": "Bcl-xL(ΔC) WT [1]", "result": "inhibited"},
      {"measurement": "IC50", "setting": "Bcl-xL(ΔC) WT [1]; Bcl-xL(ΔC) 500 nM, read-out: Pore Inhibition IC50", "result": "2.03 ± 0.24", "unit": "µM"},
      {"measurement": "IC50", "setting": "Bcl-xL(ΔC) F146L [2]", "result": "3.6 ± 0.4", "unit": "µM"},
      {"measurement": "IC50", "setting": "Bcl-xL(ΔC) F97W [3]", "result": "3.45 ± 0.34", "unit": "µM"},
      {"measurement": "IC50", "setting": "Bcl-xL(ΔC) E92L [4]", "result": "2.47 ± 0.3", "unit": "µM"},
      {"measurement": "IC50", "setting": "Bcl-xL(ΔC) A142L [5]", "result": "4.1 ± 1.24", "unit": "µM"},
      {"measurement": "Kd", "setting": "Bcl-xL(ΔC) WT [6]", "result": "2.36 ± 1.41", "unit": "µM"},
      {"measurement": "decrease in affinity", "setting": "Bcl-xL(ΔC) F146L [7]", "result": "~10", "unit": "fold"},
      {"measurement": "Kd", "setting": "Bcl-xL(ΔC) F146L [7]; [16]", "result": "20 ± 9.4", "unit": "µM"},
      {"measurement": "increase in Kd compared with Bcl-xL wt(ΔC)", "setting": "Bcl-xL(ΔC) F97W [8]", "result": 8, "unit": "fold"},
      {"measurement": "Kd", "setting": "Bcl-xL(ΔC) F97W [8]; [16]", "result": "17.6 ± 5.2", "unit": "µM"},
      {"measurement": "increase in Kd compared with Bcl-xL wt(ΔC)", "setting": "Bcl-xL(ΔC) A142L [9]", "result": 20, "unit": "fold"},
      {"measurement": "Kd", "setting": "Bcl-xL(ΔC) A142L [9]; [16]", "result": "41.8 ± 21.4", "unit": "µM"},
      {"measurement": "Kd", "setting": "Bcl-xL(ΔC) E92L [10]", "result": "5.06 ± 0.86", "unit": "µM"},
      {"measurement": "sensitivity to antimycin A1", "setting": "[11]", "result": "completely insensitive"},
      {"measurement": "Cytotoxicity LD50", "setting": "[11]; 24 h", "result": ">10", "unit": "µM"},
      {"measurement": "sensitivity to antimycin A1", "setting": "[12]", "result": "completely insensitive"},
      {"measurement": "Cytotoxicity LD50", "setting": "[12]; 24 h", "result": ">10", "unit": "µM"},
      {"measurement": "Cytotoxicity LD50", "setting": "[13]", "result": "5.12 ± 0.9", "unit": "µM"},
      {"measurement": "Cytotoxicity LD50", "setting": "[13]; listed as AA1", "result": "5.12 ± 0.94^2 μM"},
      {"measurement": "Cytotoxicity LD50", "setting": "[14]", "result": 0.47, "unit": "µM"},
      {"measurement": "Cytotoxicity LD50", "setting": "[14]; listed as AA1", "result": "0.47 ± 0.07^ μM"},
      {"measurement": "Cytotoxicity LD50", "setting": "[15]", "result": "1.72 ± 0.3", "unit": "µM"},
      {"measurement": "Cytotoxicity LD50", "setting": "[15]; listed as AA1", "result": "1.72 ± 0.34^2 μM"}
    ]}
  ]
}
